Experimental data as given in patent US8293479B2, “Use of parathyroid hormone-related protein(PTHRP) in the diagnosis and treatment of chronic lung disease and other pathologies” (Los Angeles Biomedical Research Institute at Harbor UCLA …, priority 2002, dated 2012).

Experiments:
[1] = tested on: E19 fetal rat lung fibroblasts; assay: PTHrP treatment of fetal rat lung fibroblasts, ADRP mRNA by competitive RT-PCR; assay type: cell-based; conditions: 0.5 µM PTHrP (printed 0.5:M), 15 hours, normalized to GAPDH
[2] = tested on: E21 fetal rat lung lipofibroblasts; assay: PTHrP treatment of serially passaged (P4) transdifferentiating lipofibroblasts, marker expression by competitive RT-PCR; assay type: cell-based; conditions: PTHrP 0.5 µM, compared with P1
Myofibroblasts (P10s) = assay: PGJ2 treatment of P10 myofibroblasts, lipofibroblast marker expression; assay type: cell-based, rat; conditions: PGJ2 30 µM, up to 144 hours (FIG. 13)
[3] = tested on: fetal rat lung type II cells; assay: Co-culture of fetal rat type II cells with PGJ2-pretreated myofibroblasts, cell count and RT-PCR for Surfactant Protein B; assay type: cell-based
Experimental: FIGS. 14A and 14B show the effect of lipofibroblasts and myofibroblasts on fetal rat type II cell growth and differentiation. Fetal type II cells were co-cultured with lipofibroblasts, myofibroblasts or myofibroblasts pretreated with PGJ2. Cell growth was determined by cell count and differentiation was determined by RT-PCR for Surfactant Protein B. Note that in the presence of lipofibroblasts or myofibroblasts treated with PGJ2 that type II cells grow (see Figure on left) and differentiate (Figure on right) with time in culture. […] Day 1 v subsequent day in culture, *, p<0.05; **; p<0.01; ***,p<0.0001 by Analysis of Variance.
In order to link the process of fibroblast transdifferentiation to alveolarization, we recombined day 19 fetal rat lung type II cells with either P1 lipofibroblasts, P10 myofibroblasts, or P10 myofibroblasts pretreated with PGJ2; PGJ2 induces the transdifferentiation of myofibroblasts to lipofibroblasts (Hu et al. (1995) Proc. Natl. Acad. Sci. USA 92:9856-9860).

[4] = tested on: fetal rat lung fibroblasts (FRLF); assay: PGJ2 treatment of fetal rat lung fibroblasts, spontaneous and hyperoxia-induced lipo-to-myofibroblast transdifferentiation; assay type: cell-based; conditions: PGJ2 30 µM
Experimental: e18 (pre-term) and e21 (near term) fetal rat lung fibroblasts were maintained in DMEM+10% fetal bovine serum in 21% (control) or 95% (experimental) O2+5% CO2 in sealed modular incubator chambers (Billups-Rothenberg, Del Mar, Calif.) kept at 37° C. in standard incubators. Modular incubators were flushed for 3 min at a flow rate of 10 liters/min with either 21 or 95% O2+5% CO2 with remainder of the gas mixture as N2. Modular incubators were then sealed and then put in standard cell culture incubators. When confluent, cells were passaged and allowed to grow in 21% O2 for 24 h. Subsequently, control cells were maintained in 21% O2+5% CO2 and experimental cells in 95% O2+5% CO2 in modular incubators as described above This was continued up to passage 5. Passage 1 and 5 cells were studied for the expression of various lipogenic and myogenic markers by reverse transcriptase-polymerase chain reaction (RT-PCR).
RT PCR probes used included-Rat Parathyroid Hormone related Protein Receptor (PTHrPR): 5′ CTCTTCTTGACTGTTGTCGCTGGT (SEQ ID NO:14) and 3′[…] […] Rat alpha Smooth Muscle Actin (SMA). RT-PCR was carried out for 2 hours at 37° C. in 50 mM Tris buffer, pH 8.3 containing 75 mM KCl, 3 mM MgCl2 and 10 mM DTT. […] The cDNA is adjusted to equal concentrations as assessed by the PCR of the constitutively expressed gene, GAPDH (rat lung GAPDH). […]

d18 FRLFs = assay: Antioxidant pretreatment of FRLFs exposed to hyperoxia, ADRP mRNA expression; assay type: cell-based, rat; conditions: 95% O2 for 24 h, one hour antioxidant pretreatment
Experimental: RT-PCR was carried out for 2 hours at 37° C. in 50 mM Tris buffer, pH 8.3 containing 75 mM KCl, 3 mM MgCl2 and 10 mM DTT. The total volume of incubation was 20 μl and it contained 0.5 mM each of dNTP, 20 U of RNasin, 25 pmol of oligo(dt) primer and 200 U of Moroney murine leukemia virus reverse transcriptase. […] The cDNA is adjusted to equal concentrations as assessed by the PCR of the constitutively expressed gene, GAPDH (rat lung GAPDH). […]

With “PTHrP: Parathyroid Hormone-related Protein; PTHrP (1-34) and PTHrP (7-34) amide were obtained from Bachem” the ADRP expression [1] was “inducing ADRP expression”, the “alpha SMA expression” value ([2]; P4 lipofibroblasts, 24 hour treatment) was “decreased alpha SMA expression down to levels comparable to those observed for P1s” and the “PTHrP receptor expression (printed in b310 as PTHrP expression)” value ([2]; lipofibroblasts treated at Passage 4 for 24 hours) was “increase in PTHrP expression up to a level comparable to that of P1s”.

For `CCCCC[C@H](O)/C=C/[C@H]1C(=O)C=C[C@@H]1C/C=C\CCCC(=O)O` [PGJ2, prostaglandin J2], the “expression of ADRP by P10 myofibroblasts” value (Myofibroblasts (P10s)) was “increased the expression of ADRP”, the “Surfactant Protein-B expression by type II cells” value ([3]; type II cells co-cultured with PGJ2-treated P10 myofibroblasts) was “comparable to that by lipofibroblasts” and the “type II cell proliferation (cell number)” value ([3]; type II cells co-cultured with PGJ2 pre-treated P10 myofibroblasts, 5 day culture) was “comparable to that of primary lipofibroblasts”. The “hyperoxia induced lipo-to-myofibroblast transdifferentiation” value ([4]; 24 h treatment) was “partially blunts” and the “spontaneous decrease in ADRP mRNA expression” value ([4]; up to 72 h in culture) was “attenuated”.

In the case of superoxide dismutase, the “prevention of hyperoxia-induced decrease in ADRP mRNA expression” value (d18 FRLFs) is reported as “ineffective”.
